# Source: patent US4876247A, “Methlenediphosphonic acid derivatives, and antirheumatic pharmaceutical composition in which they are present and methods of using same” (Sanofi, priority 1984, dated 1989)
# Tested on: adjuvant arthritis
# Assay: "In vivo" study: adjuvant arthritis (Mycobacterium tuberculosis) in rats, weight of the right rear paw
# Set-up: species or system male Sprague-Dawley rats
# Conditions: oral, 0.16 mmol/kg/day, 6 days/week for 3 weeks, versus untreated arthritic control rats
# Experimental: "IN VIVO" STUDY: ADJUVANT ARTHRITIS
# The injection of rats with mycobacterium causes a polyarthritis and in certain respects resembles human rheumatoid arthritis.
# A suspension of Mycobacterium tuberculosis (0.4 mg) in paraffin oil (0.05 ml) is injected intradermally into the tail of male Sprague-Dawley rats having a mean weight of 150 g.
# These rats are divided into 2 groups of 14 animals.
# The animals of the 1st group are treated 6 days/week for 3 weeks;
# either subcutaneously with doses ranging from 0.32 μmol to 32 μmol/kg/day,
# or orally with a dose of 0.16 mmol/kg/day. The second group receives placebo and serves as the control group.
# After 3 weeks of treatment, half the animals in each group are sacrificed; the other half are kept for 2 weeks without treatment and then sacrificed in turn.
# After the animals have been sacrificed, the right rear paw is removed at the tribiotarsal joint and then weighed. The mean and the standard error of the weights are determined for each half-group.
# The activity of the product is expresed as the percentage variation in the mean weight of the paws of the treated arthritic rats relative to that of the arthritic paws of the untreated rats (control rats).
# For each of the products tested, the therapeutic activity is expressed as the percentage inhibition of the weight of the paw after 3 weeks of treatment. […]
structure (smiles),measurement,setting,value
Cc1ccc(SCC(N)(P(=O)(O)O)P(=O)(O)O)cc1 [42 710 A],% Inhibition of the weight of the paw 2 weeks after the end of the treatment,then 2 weeks without treatment,7%
same,% Inhibition of the weight of the paw at the end of the treatment (3 weeks),,19%
